Source: patent US20140288040A1, “SUBSTITUTED BENZYLAMINE COMPOUNDS, THEIR USE IN MEDICINE, AND IN PARTICULAR THE TREATMENT OF HEPATITIS C VIRUS (HCV) INFECTION” (ASTEX THERAPEUTICS LIMITED, priority 2011, published 2014)
Where a name gives a salt, the structure may show the parent alone. Read-outs that look alike come from different tables or passages of the source.

Experiments:
[1] = tested on: HCV replicon GT1b RNA in Huh-7 cells; assay: Quantitative RT-PCR of HCV replicon RNA levels; format: cell-based, hepatitis C virus (HCV)
Procedure: In order to directly determine HCV replicon RNA levels in HCV replicon bearing Huh-7 cells the cells were seeded at 100,000 cellswell, in 6 well tissue culture plates, and allowed to attach overnight before compound addition at a final DMSO concentration of 0.1%. At 72 hours post compound addition RNA was extracted from DMSO-only treated and compound-treated cells using a Qiagen RNeasy kit (Qiagen) according to the manufacturer's instructions. All samples were then normalized for total RNA concentration. […] Briefly, sample RNA (2 ng) was combined with the NS5A primers listed above at a final concentration of 1 μM and an equal volume of 2× Quantitect SYBR Green RT-PCR Master Mix. […] Amplification of HPRT RNA for each sample was determined in separate reactions. The amount of input RNA from the untreated control sample was varied in order to generate a standard curve by which the relative levels of replicon RNA from each treated sample could be expressed as fold changes relative to the untreated control sample. […] Values were calculated from the average of three independent experiments, where log10 [sequence] levels at day 3, 7, 10, and 14 post compound treatment were subtracted from log10 [sequence] […]

[2] = target: T1, HCV NS3 protease (full length NS34a) (Hepatitis C virus genotype 1b, UniProt P26663); assay: HCV NS3 protease assay (FRET, full length NS34a); format: biochemical
T1 construct: The protease activity of the full length NS34a was measured using a FRET-based assay; made in house
T1 sequence (P26663 1658-1711): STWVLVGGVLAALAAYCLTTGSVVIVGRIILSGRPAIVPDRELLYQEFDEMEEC
T1 sequence (P26663 1027-1657): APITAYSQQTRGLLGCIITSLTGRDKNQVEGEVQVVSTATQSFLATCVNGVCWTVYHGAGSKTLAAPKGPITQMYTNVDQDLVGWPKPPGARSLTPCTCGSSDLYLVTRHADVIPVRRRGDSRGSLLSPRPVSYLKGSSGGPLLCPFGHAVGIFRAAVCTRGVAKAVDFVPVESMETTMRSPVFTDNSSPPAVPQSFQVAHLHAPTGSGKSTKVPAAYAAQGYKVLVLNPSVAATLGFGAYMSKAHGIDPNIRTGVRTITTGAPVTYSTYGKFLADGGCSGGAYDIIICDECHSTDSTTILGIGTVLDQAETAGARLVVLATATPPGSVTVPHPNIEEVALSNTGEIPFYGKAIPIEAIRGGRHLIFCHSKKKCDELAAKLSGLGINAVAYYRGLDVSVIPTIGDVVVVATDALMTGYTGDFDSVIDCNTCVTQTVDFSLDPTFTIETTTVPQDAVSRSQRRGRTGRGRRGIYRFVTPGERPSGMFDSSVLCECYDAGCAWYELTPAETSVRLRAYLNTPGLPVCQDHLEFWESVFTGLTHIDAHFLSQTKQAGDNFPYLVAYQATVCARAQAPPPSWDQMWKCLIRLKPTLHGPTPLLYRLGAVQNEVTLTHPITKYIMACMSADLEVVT
Procedure, shortened: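 Full-length NS34a incubated with compound and an NS4AB cleavage-site FRET peptide (QXL520 quencher, 5-FAMsp fluorophore) in 50 mM Tris pH8, 20 mM DTT, 1% CHAPS, 10% glycerol, 5% DMSO. Fluorescence followed for 30 minutes at room temperature; IC50 from initial rates of replicate progress curves.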

[3] = tested on: HCV subgenomic replicon in Huh-7 cells; assay: Replicon assay, EC50 luciferase readout; format: cell-based, hepatitis C virus (HCV); settings: Hepatitis C virus
Procedure, shortened: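 Huh-7 cells carrying a subgenomic HCV replicon (NS3-NS5b, firefly luciferase-neo fusion) were treated with compound for 72 h at 37°C, 5% CO2. EC50 derived from Bright-Glo luciferase signal as a proxy for HCV RNA; cell viability measured in parallel by Alamar blue.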

[4] = protease activity of full length NS34a, FRET peptide substrate, read-out: Activity IC50
[5] = Huh-7, 72 h, Huh-7 replicon cells, 72 h, single value, or second value of a pair x:y, read-out: Activity EC50 (μM) (EC50 luciferase readout)
[6] = Huh-7, replicon assay, set in line with previous observations, read-out: pre-determined EC50 set for the combination experiments

CC[C@@H](N[C@@H](C)CC(N)=O)c1ccc(Cl)c(Oc2ccccc2)c1F (single isomer, unassigned) [Example 88]
decline in HCV replicon RNA over time ([1]; 10x EC50, day 3, 7, 10 and 14, compound alone): comparable over time with Danoprevir and VX-222
decline in HCV replicon RNA, combination ([1]; 10x EC50, in combination with either Danoprevir or VX-222): largest declines
IC50 [2, 4]: 100 nM
EC50 [3, 5]: 0.4 µM
EC50 [3, 6]: 0.3 µM

CC[C@@H](N[C@H](C)CC(=O)NCCN(C)C)c1ccc(Cl)c(Oc2ccccc2)c1F [Example 242]
IC50 [2, 4]: 3900 nM
EC50 [3, 5]: 0.89 µM

CC[C@H](N[C@@H](C)CC(N)=O)c1ccc(Cl)c(Oc2ccccc2)c1F [Example 79, (S)-3-[(S)-1-(4-Chloro-2-fluoro-3-phenoxy-phenyl)-propylamino]-butyramide.hydrochloride]
IC50 [2, 4]: 310 nM
EC50 [3, 5]: > 10 µM

CC[C@H](N[C@H](C)CC(N)=O)c1ccc(Cl)c(Oc2ccccc2)c1F (single isomer, unassigned) [Example 83]
IC50 [2, 4]: 6700 nM
EC50 [3, 5]: 17 µM

CC[C@@H](N[C@@H](C)CC(=O)N1CCNCC1)c1ccc(Cl)c(Oc2ccccc2)c1F [Example 235]
IC50 [2, 4]: 430 nM
EC50 [3, 5]: 0.6 µM

CC[C@@H](N[C@H](C)CC(N)=O)c1ccc(Cl)c(Oc2ccc(N)c(C)c2)c1F [Example 128]
IC50 [2, 4]: 1200 nM
EC50 [3, 5]: > 10 µM

CCC(N[C@H]1CC[C@H](N)CC1)c1ccc(F)c(Oc2ccccc2)c1F (stereo partly drawn) [Example 5, Trans-N-[1′-(2,4-difluoro-3-phenoxy-phenyl)-propyl]-cyclohexane-1,4-diamine]
IC50 [2, 4]: 2000 nM
EC50 [3, 5]: 0.13 µM

CC[C@@H](N[C@@H](C)CC(=O)NCCN)c1ccc(Cl)c(Oc2ccc(N)c(C)c2)c1F [Example 238B, (S)—N-(2-Amino-ethyl)-3-{(R)-1-[3-(4-amino-3-methyl-phenoxy)-4-chloro-2-fluoro-phenyl]-propylamino}-butyramide]
inhibition at 0.03 µM ([2]; read-out: Activity % inhibition @ 0.03 μM, 0.03 μM compound): 58%
EC50 [3, 5]: 0.03 µM
EC50 [3, 6]: 0.03 µM

CCC(NC1CCCNC1)c1ccc(F)c(Oc2ccccc2)c1F (stereo not shown) [Example 17]
IC50 ([2]; IC50 values of 10-150 μM against the protease activity of the full length NS34a, or at least 40% inhibition of protease activity at a concentration of 100 μM): 10000 to 150000 nM
EC50 [3, 5]: 2.8 µM
